Laboratory results from patent US20080009418A1, “Selective Inhibitors” (Alchemia LTD., priority 2004, published 2008).

How the values were obtained:
Human μ-opioid (MOP) = biological target: T1, Human μ-opioid (MOP) (Homo sapiens, UniProt P35372); assay: Radioligand binding, human μ-opioid (MOP) membranes, FlashPlate, [3H]-Naloxone; details: compound at 10 μM; human μ-opioid (MOP) membranes
T1 construct: purchased Perkin Elmer Biosignal
Outline: (§1)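 Cloned human receptor membranes were coated onto FlashPlate wells and incubated with radioligand and compound (added from a 0.5 mM DMSO daughter plate) for 1 hour at room temperature in the dark. Scintillation counting gave percent inhibition, with DMSO defining total and reference ligand defining non-specific binding.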

Human Melanocortin (MC4) = biological target: T2, Human Melanocortin (MC4) (Homo sapiens, UniProt P32245); assay: Radioligand binding, human melanocortin MC4 membranes, FlashPlate, [125I]-NDP-αMSH; details: compound at 10 μM; human melanocortin MC4 membranes
T2 construct: purchased Perkin Elmer Biosignal
Outline: as §1

[1] = biological target: T3, Human neuropeptide Y (NPY-Y1) (Homo sapiens, UniProt P25929); assay: Radioligand binding, human neuropeptide Y NPY-Y1 membranes, FlashPlate, [125I]-PYY; details: compound at 10 μM; human NPY-Y1 membranes
T3 construct: purchased Perkin Elmer Biosignal
T3 sequence (P25929 1-384): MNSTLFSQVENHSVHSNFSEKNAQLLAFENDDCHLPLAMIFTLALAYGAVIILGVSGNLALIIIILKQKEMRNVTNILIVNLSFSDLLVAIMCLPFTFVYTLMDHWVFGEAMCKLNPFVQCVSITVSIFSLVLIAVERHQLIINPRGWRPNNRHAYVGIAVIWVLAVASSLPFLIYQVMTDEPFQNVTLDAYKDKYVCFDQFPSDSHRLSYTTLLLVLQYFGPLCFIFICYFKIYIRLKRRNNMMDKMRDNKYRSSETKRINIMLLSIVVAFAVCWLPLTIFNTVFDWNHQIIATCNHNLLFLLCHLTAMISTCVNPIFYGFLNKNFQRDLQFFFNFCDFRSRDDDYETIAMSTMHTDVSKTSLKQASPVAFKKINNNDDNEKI
Outline: as §1

Human opioid (ORL1) = biological target: T4, Human opioid (ORL1) (Homo sapiens, UniProt P41146); assay: Radioligand binding, human opioid ORL1 membranes, FlashPlate, [125I]-Nociceptin; details: compound at 10 μM; human ORL1 membranes
T4 construct: purchased Perkin Elmer Biosignal
Outline: as §1

Human Melanocortin (MC3) = biological target: T5, Human Melanocortin (MC3) (Homo sapiens, UniProt P41968); assay: Radioligand binding, human melanocortin MC3 membranes, FlashPlate, [125I]-NDP-αMSH; details: compound at 10 μM; human melanocortin MC3 membranes
T5 construct: purchased Perkin Elmer Biosignal
Outline: as §1

Mouse urotensin (mUR2) = biological target: T6, Mouse urotensin (mUR2) (Mus musculus, UniProt Q8VIH9); assay: Radioligand binding, mouse urotensin mUR2 membranes, FlashPlate, [125I]-Urotensin II; details: compound at 10 μM; mouse urotensin mUR2 membranes
T6 construct: purchased Perkin Elmer Biosignal
T6 sequence (Q8VIH9 1-385): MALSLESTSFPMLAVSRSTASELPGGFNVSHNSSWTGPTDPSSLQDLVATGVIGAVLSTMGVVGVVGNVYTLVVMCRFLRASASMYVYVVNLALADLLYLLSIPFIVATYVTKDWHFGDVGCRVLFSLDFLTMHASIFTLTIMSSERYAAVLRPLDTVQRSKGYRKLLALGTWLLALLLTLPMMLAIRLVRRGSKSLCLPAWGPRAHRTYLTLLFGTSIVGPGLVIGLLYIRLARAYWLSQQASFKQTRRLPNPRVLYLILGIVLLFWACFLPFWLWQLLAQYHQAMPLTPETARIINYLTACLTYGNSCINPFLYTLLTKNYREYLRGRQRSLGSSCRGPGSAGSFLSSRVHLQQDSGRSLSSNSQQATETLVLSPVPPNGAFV
Outline: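 Cloned mouse urotensin (mUR2) receptor membranes from Perkin Elmer Biosignal were immobilized in FlashPlate microplates using a proprietary coating. Each well got 19.5 μl buffer, then 0.5 μl of DMSO, reference ligand, or compound. Adding 5 μl of [125I]-Urotensin II, diluted to 5× final concentration in binding buffer, started binding. Plates were sealed with TopSeal-A and incubated 1 hour at room temperature in the dark. Wells were counted for 30 seconds each on a TopCount after a 60-second delay, and percentage inhibition was calculated.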

[2] = biological target: T7, Human melanin-concentrating hormone (MCH1) (Homo sapiens, UniProt Q99705); assay: Radioligand binding, human melanin-concentrating hormone MCH1 membranes, FlashPlate, [125I]-S36057; details: compound at 10 μM; human MCH1 membranes
T7 construct: purchased Perkin Elmer Biosignal
Outline: as §1

Human δ-opioid (DOP) = biological target: T8, Human δ-opioid (DOP) (Homo sapiens, UniProt P41143); assay: Radioligand binding, human δ-opioid (DOP) membranes, FlashPlate, [3H]-Bremazocine; details: compound at 10 μM; human δ-opioid (DOP) membranes
T8 construct: purchased Perkin Elmer Biosignal
Outline: as §1

Human κ-Opioid (KOP) = biological target: T9, Human κ-Opioid (KOP) (Homo sapiens, UniProt P41145); assay: Radioligand binding, human κ-opioid (KOP) membranes, filtration, [3H]-Diprenorphine; details: compound at 10 μM; human κ-opioid (KOP) membranes
T9 construct: purchased Perkin Elmer Biosignal
Outline: (§2)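 Filtration binding on cloned human receptor membranes (1 Unit/well), [125I]-Substance P for NK1 and [3H]-Diprenorphine for KOP, 1 h at room temperature. Filters PEI-presoaked, washed with cold 50 mM Tris-HCl pH 7.4, counted by scintillation; percent inhibition calculated, reference ligand defining non-specific binding.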

Human neurokinin (NK1) = biological target: T10, Human neurokinin (NK1) (Homo sapiens, UniProt P25103); assay: Radioligand binding, human neurokinin NK1 membranes, filtration, [125I]-Substance P; details: compound at 10 μM; human neurokinin NK1 membranes
T10 construct: purchased Perkin Elmer Biosignal
Outline: as §2

Human melanocortin (MC5) = biological target: T11, Human melanocortin (MC5) (Homo sapiens, UniProt P33032); assay: Radioligand binding, human melanocortin MC5 membranes, FlashPlate, [125I]-NDP-αMSH; details: compound at 10 μM; human melanocortin MC5 membranes
T11 construct: purchased Perkin Elmer Biosignal
Outline: as §1

T7 sequence (Q99705 whole entry): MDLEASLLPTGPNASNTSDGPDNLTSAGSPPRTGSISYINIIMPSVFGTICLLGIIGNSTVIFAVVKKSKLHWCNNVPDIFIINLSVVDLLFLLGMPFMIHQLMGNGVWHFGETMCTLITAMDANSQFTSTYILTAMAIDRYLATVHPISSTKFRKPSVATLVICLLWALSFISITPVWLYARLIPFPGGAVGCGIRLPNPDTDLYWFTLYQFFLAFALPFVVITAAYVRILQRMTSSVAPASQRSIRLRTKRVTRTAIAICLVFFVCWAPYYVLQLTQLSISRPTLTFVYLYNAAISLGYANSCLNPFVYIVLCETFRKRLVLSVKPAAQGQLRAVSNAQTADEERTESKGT
T4 sequence (P41146 whole entry): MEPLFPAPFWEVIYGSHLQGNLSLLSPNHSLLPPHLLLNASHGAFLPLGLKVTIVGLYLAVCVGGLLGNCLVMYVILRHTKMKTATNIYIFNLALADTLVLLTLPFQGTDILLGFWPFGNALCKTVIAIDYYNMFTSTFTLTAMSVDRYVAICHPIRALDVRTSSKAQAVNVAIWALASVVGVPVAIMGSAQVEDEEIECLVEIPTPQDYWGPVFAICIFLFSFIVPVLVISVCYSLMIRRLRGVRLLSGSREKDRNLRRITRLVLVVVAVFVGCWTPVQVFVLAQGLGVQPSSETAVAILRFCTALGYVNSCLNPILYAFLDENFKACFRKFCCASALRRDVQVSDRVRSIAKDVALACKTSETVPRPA
T1 sequence (P35372 whole entry): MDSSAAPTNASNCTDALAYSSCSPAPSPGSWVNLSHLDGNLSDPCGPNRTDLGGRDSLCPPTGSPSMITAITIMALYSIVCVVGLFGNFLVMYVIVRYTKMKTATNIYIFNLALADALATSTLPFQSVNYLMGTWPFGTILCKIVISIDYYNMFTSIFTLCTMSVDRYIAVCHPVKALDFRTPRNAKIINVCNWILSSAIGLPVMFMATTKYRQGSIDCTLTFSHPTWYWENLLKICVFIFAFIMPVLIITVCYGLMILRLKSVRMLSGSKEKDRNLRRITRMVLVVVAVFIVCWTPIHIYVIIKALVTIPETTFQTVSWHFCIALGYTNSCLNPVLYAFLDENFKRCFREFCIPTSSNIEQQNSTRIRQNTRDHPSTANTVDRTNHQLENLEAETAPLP
T10 sequence (P25103 whole entry): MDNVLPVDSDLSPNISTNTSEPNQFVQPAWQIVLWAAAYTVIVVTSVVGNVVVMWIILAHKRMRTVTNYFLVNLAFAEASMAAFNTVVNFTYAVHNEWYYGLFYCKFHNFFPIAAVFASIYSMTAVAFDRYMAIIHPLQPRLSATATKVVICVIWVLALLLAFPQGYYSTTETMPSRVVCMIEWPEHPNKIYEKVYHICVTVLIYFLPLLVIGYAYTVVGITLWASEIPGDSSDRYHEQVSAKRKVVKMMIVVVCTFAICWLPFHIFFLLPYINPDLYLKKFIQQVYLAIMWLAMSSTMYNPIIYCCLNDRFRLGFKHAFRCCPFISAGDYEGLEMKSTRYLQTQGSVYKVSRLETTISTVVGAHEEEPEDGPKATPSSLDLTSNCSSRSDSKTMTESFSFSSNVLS
T11 sequence (P33032 whole entry): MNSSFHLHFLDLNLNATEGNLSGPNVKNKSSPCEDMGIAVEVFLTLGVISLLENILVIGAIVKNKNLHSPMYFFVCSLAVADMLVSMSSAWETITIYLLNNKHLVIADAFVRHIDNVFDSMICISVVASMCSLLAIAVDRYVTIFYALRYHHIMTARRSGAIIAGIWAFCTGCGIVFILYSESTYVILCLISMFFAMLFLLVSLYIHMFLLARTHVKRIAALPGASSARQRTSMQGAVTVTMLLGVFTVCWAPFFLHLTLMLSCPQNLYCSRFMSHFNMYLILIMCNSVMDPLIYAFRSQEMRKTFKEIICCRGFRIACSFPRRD
T8 sequence (P41143 whole entry): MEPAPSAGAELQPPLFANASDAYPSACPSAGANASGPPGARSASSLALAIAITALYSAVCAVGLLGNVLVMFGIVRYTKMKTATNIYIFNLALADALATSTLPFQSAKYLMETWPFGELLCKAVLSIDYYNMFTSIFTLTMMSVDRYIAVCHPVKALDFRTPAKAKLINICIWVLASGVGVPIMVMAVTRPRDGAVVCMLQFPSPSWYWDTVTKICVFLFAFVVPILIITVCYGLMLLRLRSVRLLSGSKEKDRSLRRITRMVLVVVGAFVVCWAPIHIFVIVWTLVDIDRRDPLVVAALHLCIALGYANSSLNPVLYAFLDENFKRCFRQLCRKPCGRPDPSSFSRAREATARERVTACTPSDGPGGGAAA
T2 sequence (P32245 whole entry): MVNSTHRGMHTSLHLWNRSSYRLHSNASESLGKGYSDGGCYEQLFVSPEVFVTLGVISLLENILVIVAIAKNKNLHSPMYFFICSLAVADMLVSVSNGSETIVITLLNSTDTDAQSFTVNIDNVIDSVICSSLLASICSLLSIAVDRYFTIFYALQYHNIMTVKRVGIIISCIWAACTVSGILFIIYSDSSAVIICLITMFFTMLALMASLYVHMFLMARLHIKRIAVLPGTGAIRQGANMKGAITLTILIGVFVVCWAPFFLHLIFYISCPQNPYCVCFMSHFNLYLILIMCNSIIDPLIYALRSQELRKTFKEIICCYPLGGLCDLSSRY
T9 sequence (P41145 whole entry): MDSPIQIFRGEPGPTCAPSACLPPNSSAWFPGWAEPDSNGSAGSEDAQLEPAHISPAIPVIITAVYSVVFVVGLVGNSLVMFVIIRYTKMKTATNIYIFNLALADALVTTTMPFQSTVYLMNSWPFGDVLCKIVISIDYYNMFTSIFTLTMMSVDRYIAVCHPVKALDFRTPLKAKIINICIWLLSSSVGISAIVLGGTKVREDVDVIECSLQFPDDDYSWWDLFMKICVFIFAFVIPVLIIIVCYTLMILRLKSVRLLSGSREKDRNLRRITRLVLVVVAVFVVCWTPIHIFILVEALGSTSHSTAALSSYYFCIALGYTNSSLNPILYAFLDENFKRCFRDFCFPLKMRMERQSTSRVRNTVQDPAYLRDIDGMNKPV
T5 sequence (P41968 whole entry): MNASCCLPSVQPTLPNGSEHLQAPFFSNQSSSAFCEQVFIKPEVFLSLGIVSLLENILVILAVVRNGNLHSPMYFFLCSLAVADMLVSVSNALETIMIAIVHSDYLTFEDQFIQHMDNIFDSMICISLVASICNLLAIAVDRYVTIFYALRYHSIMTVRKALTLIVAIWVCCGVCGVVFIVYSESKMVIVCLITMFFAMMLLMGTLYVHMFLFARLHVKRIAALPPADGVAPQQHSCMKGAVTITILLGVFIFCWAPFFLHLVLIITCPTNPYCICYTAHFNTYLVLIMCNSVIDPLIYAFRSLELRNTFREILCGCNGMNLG

Structure (SMILES)	A7 radioligand binding inhibition (Human μ-opioid (MOP))	A4 radioligand binding inhibition (Human Melanocortin (MC4))	A9 radioligand binding inhibition [1]	A10 radioligand binding inhibition (Human opioid (ORL1))	A3 radioligand binding inhibition (Human Melanocortin (MC3))	A11 radioligand binding inhibition (Mouse urotensin (mUR2))	A6 radioligand binding inhibition [2]	A1 radioligand binding inhibition (Human δ-opioid (DOP))	A2 radioligand binding inhibition (Human κ-Opioid (KOP))	A8 radioligand binding inhibition (Human neurokinin (NK1))	A5 radioligand binding inhibition (Human melanocortin (MC5))
CO[C@H]1[C@H](O)[C@@H](COCc2ccc(-c3ccccc3)cc2)OC(OCc2ccccc2)[C@@H]1NC(=O)CCCNC(=N)N (stereo partly drawn) [compound 85]	+ (“+” indicates greater than 50% inhibition at 10 μM)	+ (“+” indicates greater than 50% inhibition at 10 μM)	− (“−” indicates less than 50% inhibition at 10 μM)	+ (“+” indicates greater than 50% inhibition at 10 μM)	+ (“+” indicates greater than 50% inhibition at 10 μM)	− (“−” indicates less than 50% inhibition at 10 μM)	+ (“+” indicates greater than 50% inhibition at 10 μM)	− (“−” indicates less than 50% inhibition at 10 μM)	− (“−” indicates less than 50% inhibition at 10 μM)	+ (“+” indicates greater than 50% inhibition at 10 μM)	+ (“+” indicates greater than 50% inhibition at 10 μM)
CO[C@H]1[C@H](O)[C@@H](COCc2ccc3ccccc3c2)OC(OCc2ccccc2)[C@@H]1NC(=O)CNC(=N)N (stereo partly drawn) [compound 86]	+ (“+” indicates greater than 50% inhibition at 10 μM)	+ (“+” indicates greater than 50% inhibition at 10 μM)	− (“−” indicates less than 50% inhibition at 10 μM)	− (“−” indicates less than 50% inhibition at 10 μM)	+ (“+” indicates greater than 50% inhibition at 10 μM)	− (“−” indicates less than 50% inhibition at 10 μM)	− (“−” indicates less than 50% inhibition at 10 μM)	− (“−” indicates less than 50% inhibition at 10 μM)	− (“−” indicates less than 50% inhibition at 10 μM)	+ (“+” indicates greater than 50% inhibition at 10 μM)	+ (“+” indicates greater than 50% inhibition at 10 μM)
CO[C@H]1[C@H](O)[C@@H](COCc2ccc3ccccc3c2)OC(OCc2ccccc2)[C@@H]1NC(=O)CCNC(=N)N (stereo partly drawn) [compound 87]	− (“−” indicates less than 50% inhibition at 10 μM)	− (“−” indicates less than 50% inhibition at 10 μM)	− (“−” indicates less than 50% inhibition at 10 μM)	− (“−” indicates less than 50% inhibition at 10 μM)	− (“−” indicates less than 50% inhibition at 10 μM)	− (“−” indicates less than 50% inhibition at 10 μM)	− (“−” indicates less than 50% inhibition at 10 μM)	− (“−” indicates less than 50% inhibition at 10 μM)	− (“−” indicates less than 50% inhibition at 10 μM)	+ (“+” indicates greater than 50% inhibition at 10 μM)	− (“−” indicates less than 50% inhibition at 10 μM)
CO[C@H]1[C@H](O)[C@@H](COCc2ccc3ccccc3c2)OC(OCc2ccccc2)[C@@H]1NC(=O)CCCN (stereo partly drawn) [compound 88]	− (“−” indicates less than 50% inhibition at 10 μM)	− (“−” indicates less than 50% inhibition at 10 μM)	− (“−” indicates less than 50% inhibition at 10 μM)	− (“−” indicates less than 50% inhibition at 10 μM)	− (“−” indicates less than 50% inhibition at 10 μM)	− (“−” indicates less than 50% inhibition at 10 μM)	− (“−” indicates less than 50% inhibition at 10 μM)	− (“−” indicates less than 50% inhibition at 10 μM)	− (“−” indicates less than 50% inhibition at 10 μM)	+ (“+” indicates greater than 50% inhibition at 10 μM)	− (“−” indicates less than 50% inhibition at 10 μM)
CO[C@H]1[C@H](O)[C@@H](COCc2ccc3ccccc3c2)OC(OCc2ccccc2)[C@@H]1NC(=O)CCCNC(=N)N (stereo partly drawn) [compound 89]	+ (“+” indicates greater than 50% inhibition at 10 μM)	− (“−” indicates less than 50% inhibition at 10 μM)	− (“−” indicates less than 50% inhibition at 10 μM)	− (“−” indicates less than 50% inhibition at 10 μM)	− (“−” indicates less than 50% inhibition at 10 μM)	− (“−” indicates less than 50% inhibition at 10 μM)	− (“−” indicates less than 50% inhibition at 10 μM)	− (“−” indicates less than 50% inhibition at 10 μM)	− (“−” indicates less than 50% inhibition at 10 μM)	+ (“+” indicates greater than 50% inhibition at 10 μM)	− (“−” indicates less than 50% inhibition at 10 μM)
CO[C@H]1[C@H](O)[C@@H](COCc2ccc(Cl)cc2)OC(OCc2ccccc2)[C@@H]1NC(=O)CNC(=N)N (stereo partly drawn) [compound 90]	− (“−” indicates less than 50% inhibition at 10 μM)	− (“−” indicates less than 50% inhibition at 10 μM)	− (“−” indicates less than 50% inhibition at 10 μM)	− (“−” indicates less than 50% inhibition at 10 μM)	− (“−” indicates less than 50% inhibition at 10 μM)	− (“−” indicates less than 50% inhibition at 10 μM)	− (“−” indicates less than 50% inhibition at 10 μM)	− (“−” indicates less than 50% inhibition at 10 μM)	− (“−” indicates less than 50% inhibition at 10 μM)	+ (“+” indicates greater than 50% inhibition at 10 μM)	− (“−” indicates less than 50% inhibition at 10 μM)
